These results are taken from PMC2776038 (Molecular cell, 2009).

This assay has as its system XPD (Rad3) helicase. As to the kind of experiment: single-molecule TIRF, Cy3 quenching by FeS cluster. The conditions noted are these: 3'-Cy3 ssDNA, 600 pM XPD, no RPA; 50 mM Tris-HCl pH 7.5, 3 mM MgCl2, 25 °C. Type of assay: biochemical, Ferroplasma acidarmanus.

Regarding `Nc1ncnc2c1ncn2[C@@H]1O[C@H](COP(=O)(O)OP(=O)(O)OP(=O)(O)O)[C@@H](O)[C@H]1O` [ATP], the Km stood at 2.8 ± 1 µM.
